Laboratory results: patent US6362181B1, “Isoquinolones” (Warner-Lambert Company, priority 1996, dated 2002)
pIC50: −log10 of the molar value. Converted amounts (≈) assume the structure as drawn. Like-named read-outs stand apart in the source and are kept apart here.

Experiments:
[1] = target: T1, E. coli gyrase (Escherichia coli, UniProt P0AES4+P0AES6); test: DNA gyrase supercoiling inhibition assay; format: biochemical
T1 construct: purchased Lucent, Ltd., Leicester, UK
Procedure: The effects of test agents on the activity of DNA gyrase was determined by the supercoiling inhibition assay, following reaction conditions recommended by the enzyme supplier (Lucent, Ltd., Leicester, UK), as follows. Reactions were performed in buffer G (35 mM Tris-HCL (pH 7.5), 24 mM KCl, 4 mM MgCl2, 2 mM DTT, 1.8 mM spermidine, 1 mM ATP, 0.1 mg/mL bovine serum albumin). 0.25 μg of relaxed plasmid pBR322 (Lucent, Ltd., Leicester, UK) was reacted with 1 U E. coli gyrase (Lucent, Ltd., Leicester, UK), in the absence or presence of drugs, for 30 minutes at 37° C. Reactions were stopped by the addition of SDS and proteinase K to respective final concentrations of 1% and 0.5 mg/mL. After an additional 30 minutes at 37° C., one-tenth volume of 10×loading buffer (0.3% bromophenol blue, 16% Ficoll, 10 mM Na2HPO4) was added, and reactions were loaded onto agarose gels and electrophoresed as described above for intercalation assays. The concentration of drug inhibiting 50% of the supercoiling activity of DNA gyrase is given as an IC50 and recorded in Table 2.

[2] = target: T2, E. coli topoisomerase IV (Escherichia coli, UniProt P0AFI2+P20083); test: Topoisomerase IV k-DNA decatenation assay; format: biochemical
T2 construct: made in house; host or cells: E. coli overexpressing strains
T2 sequence (P0AFI2 whole entry): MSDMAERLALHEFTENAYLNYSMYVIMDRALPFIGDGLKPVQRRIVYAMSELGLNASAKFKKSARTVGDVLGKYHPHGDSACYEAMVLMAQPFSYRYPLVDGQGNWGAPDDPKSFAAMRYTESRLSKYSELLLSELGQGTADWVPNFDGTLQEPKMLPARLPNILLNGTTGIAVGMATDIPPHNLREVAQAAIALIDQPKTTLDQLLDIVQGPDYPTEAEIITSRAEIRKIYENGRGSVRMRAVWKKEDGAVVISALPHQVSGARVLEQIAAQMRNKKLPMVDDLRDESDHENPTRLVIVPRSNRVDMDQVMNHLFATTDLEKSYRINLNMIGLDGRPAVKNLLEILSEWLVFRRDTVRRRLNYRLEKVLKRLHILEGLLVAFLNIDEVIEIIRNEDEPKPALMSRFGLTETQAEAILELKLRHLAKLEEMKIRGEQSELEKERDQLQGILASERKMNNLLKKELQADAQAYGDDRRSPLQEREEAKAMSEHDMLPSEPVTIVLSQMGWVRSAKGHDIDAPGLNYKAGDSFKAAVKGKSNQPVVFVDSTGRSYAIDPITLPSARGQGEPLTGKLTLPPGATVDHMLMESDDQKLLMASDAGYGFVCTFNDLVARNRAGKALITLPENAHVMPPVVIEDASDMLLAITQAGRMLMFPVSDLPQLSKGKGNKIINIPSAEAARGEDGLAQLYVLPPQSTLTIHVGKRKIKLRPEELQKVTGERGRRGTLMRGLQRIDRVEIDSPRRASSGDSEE
T2 sequence (P20083 whole entry): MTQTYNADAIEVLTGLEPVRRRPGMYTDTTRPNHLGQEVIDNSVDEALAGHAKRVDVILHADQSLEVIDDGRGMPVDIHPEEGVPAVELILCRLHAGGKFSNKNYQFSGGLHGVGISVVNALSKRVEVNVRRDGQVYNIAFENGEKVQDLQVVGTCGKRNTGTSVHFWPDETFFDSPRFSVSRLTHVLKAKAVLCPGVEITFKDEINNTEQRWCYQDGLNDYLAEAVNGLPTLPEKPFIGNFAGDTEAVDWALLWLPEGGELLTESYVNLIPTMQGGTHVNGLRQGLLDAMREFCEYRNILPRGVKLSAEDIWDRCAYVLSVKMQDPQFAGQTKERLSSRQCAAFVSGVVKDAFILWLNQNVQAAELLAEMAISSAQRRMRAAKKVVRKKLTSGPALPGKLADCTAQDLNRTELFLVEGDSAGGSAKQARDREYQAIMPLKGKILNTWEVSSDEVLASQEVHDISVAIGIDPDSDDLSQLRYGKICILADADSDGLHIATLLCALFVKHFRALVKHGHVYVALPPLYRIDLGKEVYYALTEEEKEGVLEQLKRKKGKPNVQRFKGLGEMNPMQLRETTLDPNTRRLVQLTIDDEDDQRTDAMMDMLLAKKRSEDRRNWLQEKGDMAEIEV
Procedure: Topoisomerase IV was purified from E. coli overexpressing strains and the compounds were assayed according to literature conditions (Journal of Biological Chemistry, 1993;268(32):24481). The k-DNA decatenation assay was used. Briefly, reactions were performed in buffer R (40 mM Tris-HCl (pH 7.5), 6 mM MgCl2, 10 mM DTT, 100 mM potassium glutamate, 40 μM ATP, 50 μg/mL bovine serum albumin, 10 mM NaCl). 0.2 μg of kinetoplast DNA (k-DNA; TopoGen, Columbus, Ohio) was incubated with 5 ng of E. coli topoisomerase IV in the presence or absence of test compounds for 10 minutes at 37° C. Subsequently, one-tenth volume of 10×gel loading buffer (0.3% bromophenol blue, 16% Ficoll, 10 mM Na2HPO4) was added, and samples were loaded onto horizontal 0.8% agarose gels prepared with TBE buffer and containing 0.05 μg/mL of ethidium bromide. Electrophoresis was at 70 V for 2 to 4 hours. Gels were then examined by exposure to UV light. The concentration of drug inhibiting 50% of the decantenating activity of Topoisomerase IV is given as an IC50 and recorded in Table 2.

[3] = test system: S. pyogenes C203; test: Antibacterial assay, standard microtitration, MIC; format: cell-based; conditions: Gram positive; for MIC: Streptococcus pyogenes, read-out: Minimum Inhibitory Concentrations, S. pyogenes C203
Procedure: (§1) The compounds of the present invention were tested against an assortment of gram negative and gram positive organisms using standard microtitration techniques (Cohen, et al., Antimicrob. Agents Chemother., 1985;28:766; Heifetz, et al. Antimicrob. Agents Chemother., 1974;6:124).

[4] = test system: E. coli B90; test: Antibacterial assay, standard microtitration, MIC; format: cell-based; conditions: Gram negative; for MIC: Escherichia coli, read-out: Minimum Inhibitory Concentrations, E. coli B90
Procedure: as §1

[5] = test system: E. coli To1C; test: Antibacterial assay, standard microtitration, MIC; format: cell-based; conditions: for Minimum Inhibitory Concentrations, E. coli To1C: Gram negative; for MIC: Escherichia coli, TO1C, read-out: Minimum Inhibitory Concentrations, E. coli To1C
Procedure: as §1

[6] = test system: S. aureus 29213; test: Antibacterial assay, standard microtitration, MIC; format: cell-based; conditions: Gram positive; for MIC: Staphylococcus aureus, read-out: Minimum Inhibitory Concentrations, S. aureus 29213
Procedure: as §1

[7] = test system: E. coli MC4100; test: Antibacterial assay, standard microtitration, MIC; format: cell-based; conditions: Gram negative; for MIC: Escherichia coli, read-out: Minimum Inhibitory Concentrations, E. coli MC4100
Procedure: as §1

[8] = test system: B. subtilis RB1; test: Antibacterial assay, standard microtitration, MIC; format: cell-based; conditions: Gram positive; for MIC: Bacillus subtilis, read-out: Minimum Inhibitory Concentrations, B. subtilis RB1
Procedure: as §1

[9] = target: relaxed plasmid pBR322; test: DNA intercalation/binding assay; conditions: pBR322 with calf thymus topoisomerase I, 30 minutes at 37° C.; read-out: Drug Concentration causing 50% Intercalation of DNA
Procedure: Compounds of the present invention were evaluated for their ability to intercalate/bind to DNA, using the procedure described in Nucleic Acids Research, 1987;15(15):6713. Specifically, 0.2 μg of relaxed plasmid pBR322 (Lucent, Ltd., Leicester, UK) was treated with 2 U of calf thymus topoisomerase I (Gibco/BRL, Gaithersburg, Md.) in buffer I (10 mM Tris-HCl (Ph 7.5), 50 mM KCl, 5 mM MgCl2, 1 mM Na2EDTA, 15 μg/mL bovine serum albumin) in the presence or absence of test compounds. Reaction were incubated for 30 minutes at 37° C.; volumes were typically 30 μL. Reactions were terminated by the addition of sodium dodecylsulfate (SDS) to 1% and proteinase K to 0.5 mg/mL final concentrations. After an additional 30 minutes at 37° C., one-tenth volume of 10×concentrated loading buffer (0.3% bromophenol blue, 16% Ficoll, 10 mM Na2HPO4) was added, and samples were loaded onto horizontal 0.8% agarose gels prepared in TAE buffer. Electrophoresis was at 22 V for 14 hours. Gels were then stained by soaking for 1.5 hours in deionized water containing 0.2 μg/mL of ethidium bromide, followed by destaining in deionized water for an additional 1.5 hours. Gels were examined and photographed following exposure to UV light. The concentration of the drug which induced a 50% change in the DNA by intercalation is represented by an intercalation IC50 and is recorded in Table 4.

[10] = supercoiling of relaxed pBR322, 30 minutes at 37° C., read-out: DNA Gyrase IC50
[11] = k-DNA decatenation, 10 minutes at 37° C., read-out: Top IV IC50

T1 sequence (P0AES4 whole entry, one chain of several): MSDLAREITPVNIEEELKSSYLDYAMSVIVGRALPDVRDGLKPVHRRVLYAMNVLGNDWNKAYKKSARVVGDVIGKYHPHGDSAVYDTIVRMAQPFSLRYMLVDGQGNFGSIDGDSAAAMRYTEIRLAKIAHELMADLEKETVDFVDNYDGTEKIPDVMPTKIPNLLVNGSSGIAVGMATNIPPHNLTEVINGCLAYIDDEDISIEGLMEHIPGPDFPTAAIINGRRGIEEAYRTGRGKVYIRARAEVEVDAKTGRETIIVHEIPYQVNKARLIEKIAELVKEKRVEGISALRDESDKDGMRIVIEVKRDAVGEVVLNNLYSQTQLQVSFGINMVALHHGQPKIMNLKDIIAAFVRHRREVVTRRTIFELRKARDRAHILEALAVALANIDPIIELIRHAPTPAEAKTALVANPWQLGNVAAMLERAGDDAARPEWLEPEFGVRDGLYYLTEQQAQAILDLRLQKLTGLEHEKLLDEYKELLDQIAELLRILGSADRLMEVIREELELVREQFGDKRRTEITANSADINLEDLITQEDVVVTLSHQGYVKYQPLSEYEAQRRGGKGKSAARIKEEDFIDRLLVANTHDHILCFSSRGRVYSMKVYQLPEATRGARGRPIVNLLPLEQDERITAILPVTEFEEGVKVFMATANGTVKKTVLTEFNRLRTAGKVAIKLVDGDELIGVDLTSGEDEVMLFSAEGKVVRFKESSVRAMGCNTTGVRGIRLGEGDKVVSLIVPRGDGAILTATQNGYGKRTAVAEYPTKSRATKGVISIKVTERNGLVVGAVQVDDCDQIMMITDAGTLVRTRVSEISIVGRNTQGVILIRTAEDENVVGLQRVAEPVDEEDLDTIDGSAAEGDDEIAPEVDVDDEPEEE

Compound	pIC50 [1, 10]	pIC50 [2, 11]	Minimum Inhibitory Concentrations, S. pyogenes C203 [3] [µg/mL]	Minimum Inhibitory Concentrations, E. coli B90 [4] [µg/mL]	Minimum Inhibitory Concentrations, E. coli To1C [5] [µg/mL]	Minimum Inhibitory Concentrations, S. aureus 29213 [6] [µg/mL]	Minimum Inhibitory Concentrations, E. coli MC4100 [7] [µg/mL]	Minimum Inhibitory Concentrations, B. subtilis RB1 [8] [µg/mL]	MIC [3] [µg/mL]	MIC [4] [µg/mL]	MIC [6] [µg/mL]	MIC [7] [µg/mL]	MIC [8] [µg/mL]	pIC50 [9]	MIC [5] [µg/mL]	pIC50 [1]	melting point [°C]	pIC50 [2]	pIC50 ([2]; read-out: Top IV IC50)
6-Hydroximino-2,5-dihydroxy-methyl-benzo[de]isoquinoline-1,3-dione [Example 120]	4.52	4.60	64	2.0	1.0	16	>64	>64											
CN(C)CCN1C(=O)c2cccc3cc(N)cc(c23)C1=O [Amonafide, amonafide, reference compound]									4 (≈ 14.1 µM)	16 (≈ 56.5 µM)	128 (≈ 452 µM)	64 (≈ 226 µM)	64 (≈ 226 µM)	> 5.00					
O=C1c2cccc3cc([N+](=O)[O-])cc(c23)C(=O)N1O [Example 1, 2-Hydroxy-5-nitro-benzo[de]isoquinoline-1,3-dione]									32 (≈ 124 µM)	2 (≈ 7.75 µM)	8 (≈ 31 µM)	4 (≈ 15.5 µM)	8 (≈ 31 µM)	< 4.00					
O=C1c2cccc3c([N+](=O)[O-])ccc(c23)C(=O)N1O [Example 2, 2-Hydroxy-6-nitro-benzo[de]isoquinoline-1,3-dione]									4 (≈ 15.5 µM)	4 (≈ 15.5 µM)	2 (≈ 7.75 µM)	8 (≈ 31 µM)	4 (≈ 15.5 µM)	< 4.00					
Nc1ccc2c3c(cccc13)C(=O)N(O)C2=O [Example 7, 6-Amino-2-hydroxy-benzo[de]isoquinoline-1,3-dione]									> 64	4 (≈ 17.5 µM)	8 (≈ 35.1 µM)	4 (≈ 17.5 µM)	16 (≈ 70.1 µM)	< 4.00	4 (≈ 17.5 µM)				
O=C1c2cccc3cc(F)cc(c23)C(=O)N1O [Example 11, 5-Fluoro-2-hydroxy-benzo[de]isoquinoline-1,3-dione]									> 64	2 (≈ 8.65 µM)	64 (≈ 277 µM)	8 (≈ 34.6 µM)	8 (≈ 34.6 µM)	< 4.00					
Nc1c(Br)cc2c3c(cccc13)C(=O)N(O)C2=O [Example 26, 6-Amino-5-bromo-2-hydroxy-benzo[de]isoquinoline-1,3-dione]	5.15	5.00							> 64	0.25 (≈ 0.814 µM)	2 (≈ 6.51 µM)	0.5 (≈ 1.63 µM)	0.5 (≈ 1.63 µM)	< 4.00					
COc1cc2c3c(cccc3c1N)C(=O)N(O)C2=O [Example 30, 6-Amino-2-hydroxy-5-methoxy-benzo[de]isoquinoline-1,3-dione]									64 (≈ 248 µM)	4 (≈ 15.5 µM)	4 (≈ 15.5 µM)	8 (≈ 31 µM)	4 (≈ 15.5 µM)	< 4.00	2 (≈ 7.74 µM)				
O=C1c2ccc(N3CCCC3)c3cc(Br)cc(c23)C(=O)N1O [Example 59, 5-Bromo-2-hydroxy-7-(pyrrolidin-1-yl)-benzo[de]isoquinoline-1,3-dione]	5.59								> 64	0.06 (≈ 0.166 µM)	1 (≈ 2.77 µM)	2 (≈ 5.54 µM)	0.5 (≈ 1.38 µM)	< 4.00	0.06 (≈ 0.166 µM)				
O=C1c2cccc3c(N4CCOCC4)c([N+](=O)[O-])cc(c23)C(=O)N1O [Example 81]									> 64	8 (≈ 23.3 µM)	32 (≈ 93.2 µM)	> 64	8 (≈ 23.3 µM)	4.03	8 (≈ 23.3 µM)	4.72	272 to 274		
NCC1CCN(c2c(Cl)cc3c4c(cccc24)C(=O)N(O)C3=O)C1 (centres unmarked) [Example 85]									4 (≈ 11.6 µM)	0.5 (≈ 1.45 µM)	4 (≈ 11.6 µM)	1 (≈ 2.89 µM)	1 (≈ 2.89 µM)		0.25 (≈ 0.723 µM)	5.68			
CC1(CN)CCN(c2c(Cl)cc3c4c(cccc24)C(=O)N(O)C3=O)C1 (centres unmarked) [Example 89]									2 (≈ 5.56 µM)	1 (≈ 2.78 µM)	1 (≈ 2.78 µM)	4 (≈ 11.1 µM)	1 (≈ 2.78 µM)		0.5 (≈ 1.39 µM)	5.26			
CN1CCN(c2c(Cl)cc3c4c(cccc24)C(=O)N(O)C3=O)CC1 [Example 98]									8 (≈ 23.1 µM)	4 (≈ 11.6 µM)	16 (≈ 46.3 µM)	32 (≈ 92.5 µM)	8 (≈ 23.1 µM)	4.72	4 (≈ 11.6 µM)	4.80		5.52	
CCCNC(=O)Nc1cc2c3c(cccc3c1)C(=O)N(O)C2=O [Example 102]									> 64	32 (≈ 102 µM)	> 64	> 64	16 (≈ 51.1 µM)		16 (≈ 51.1 µM)		> 250		
O=C1c2cccc3c(Cl)c(Cl)cc(c23)C(=O)N1O [Example 103, 5,6-Dichloro-2-hydroxy-benzo[de]isoquinoline-1,3-dione]	5.31	4.72							> 64	0.5 (≈ 1.77 µM)	16 (≈ 56.7 µM)	16 (≈ 56.7 µM)	1 (≈ 3.55 µM)	4.59	0.5 (≈ 1.77 µM)				
NC1CCN(c2c(Cl)cc3c4c(cc([N+](=O)[O-])cc24)C(=O)N(O)C3=O)C1.O=C(O)C(F)(F)F (centres unmarked) [Example 115]	6.15		4.0	0.5	0.5	>64	8.0	2.0											5.05
NC1CCN(c2ccc3c4c(cc(Cl)c(Cl)c24)C(=O)N(O)C3=O)C1.O=C(O)C(F)(F)F (centres unmarked) [Example 117]	5.00		8.0	0.5	0.25	8.0	2.0	2.0											5.40
O=C1c2cccc3c4c(cc(c23)C(=O)N1O)OCO4 [Example 122, 2-Hydroxy-5,6-methylenedioxy-benzo[de]isoquinoline-1,3-dione]	4.72								> 64	0.5 (≈ 1.94 µM)	8 (≈ 31.1 µM)	2 (≈ 7.78 µM)	2 (≈ 7.78 µM)	< 4.00	0.5 (≈ 1.94 µM)				
